Assay results reported in patent US12435091B2, “RNA-binding protein multimerization inhibitors and methods of use thereof” (THE UAB RESEARCH FOUNDATION, priority 2020, dated 2025).
In brackets after ≈: the same amount, converted by molar mass. Read-outs that look alike come from different tables or passages of the source.

How the values were obtained:
HuR = molecular target: T1, HuR (Homo sapiens, UniProt Q15717); experiment: cell-based split firefly luciferase-HuR dimerization assay; details: for IC50: read-out: HuR IC50
T1 construct: expressed in transfected cells; host or cells: U251 glioma cells, doxycycline-inducible constructs
T1 sequence (Q15717 whole entry): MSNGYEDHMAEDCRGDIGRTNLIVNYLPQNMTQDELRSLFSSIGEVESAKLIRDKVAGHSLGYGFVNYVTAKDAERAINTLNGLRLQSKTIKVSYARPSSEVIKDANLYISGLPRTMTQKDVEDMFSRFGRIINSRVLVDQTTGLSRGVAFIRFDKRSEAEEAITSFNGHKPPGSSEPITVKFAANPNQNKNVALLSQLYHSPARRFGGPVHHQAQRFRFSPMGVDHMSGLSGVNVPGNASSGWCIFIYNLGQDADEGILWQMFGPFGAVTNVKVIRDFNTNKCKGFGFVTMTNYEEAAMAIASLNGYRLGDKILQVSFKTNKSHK
Experimental: (§1) The oncogenic activity of HuR is driven by subcellular localization into the cytoplasm and formation of multimers of HuR. To develop cell based assays to characterize the ability of small molecules to disrupt this process, a split luciferase assay detecting the formation of HuR dimers was developed. The assays were performed in 96 well plates with clear bottom (Corning Inc., Corning, NY). Cells with designed constructs (30,000-50,000 in number) were plated per well; the constructs were induced by doxycycline (0.75 ug/ml) for 48 hours. The evaluated compounds at different concentrations and the corresponding vehicle as the control were administered for 6 hours. The luminescence signals were detected by using InfinitiM200 plate reader (TECAN, Morrisville, NC) in the presence of the luciferase substrate luciferin (D-Luciferin, potassium salt), which was purchased from GoldBio (St Louis, MO). A multichannel pipette (XL 3000I™, Denville Scientific, South Plainfield, NJ) was used in all procedures to ensure the experiment quality.
The assay used the coding sequence of HuR in frame with the N-terminus of firefly luciferase or the C-terminus as depicted in FIG. 2A. When HuR forms dimers in this case, luciferase is generated and with luciferin present, luminescence is generated.
(§2) Squares represent luminescence signal from reporter representing HuR dimers (U251 cells co-expressing HuR-Nluc and HuR-Cluc constructs); circles represent luminescence signal from control reporter (U251 cells expressing Fluc construct). Results are shown as mean+SD.

[1] = system: U251 cells expressing Fluc construct; experiment: control Fluc (full length luciferase) reporter assay in U251 cells; assay type: cell-based; details: Homo sapiens, U-251, 6 h, read-out: Fluc Imax % Inh; for inhibition at 50 µM: Concn 50 uM
Experimental: as §1, with “quality. […]” for “quality.”
as §2

[2] = aqueous solubility at pH 7.4; assay type: physicochemical; details: aqueous medium at pH 7.4, pH 7.4, aqueous buffer; read-out: Sol @ pH 7.4
Experimental: (§6) Selected compounds were assessed for their aqueous solubility, Log D and mouse and human liver microsomal stability.

Log D at pH 7.4 = assay type: physicochemical
Experimental: as §6

[3] = Mouse liver microsomal stability in vitro; assay type: in vitro ADME; details: liver microsomes, read-out: MLM t1/2
Experimental: as §6

in vitro = details: human, liver microsomes
Experimental: as §6

AAK1 = AAK1 (Homo sapiens, UniProt Q2M2I8); experiment: SelectScreen kinase profiling, LanthaScreen Binding
AAK1, sequence (Q2M2I8 whole entry): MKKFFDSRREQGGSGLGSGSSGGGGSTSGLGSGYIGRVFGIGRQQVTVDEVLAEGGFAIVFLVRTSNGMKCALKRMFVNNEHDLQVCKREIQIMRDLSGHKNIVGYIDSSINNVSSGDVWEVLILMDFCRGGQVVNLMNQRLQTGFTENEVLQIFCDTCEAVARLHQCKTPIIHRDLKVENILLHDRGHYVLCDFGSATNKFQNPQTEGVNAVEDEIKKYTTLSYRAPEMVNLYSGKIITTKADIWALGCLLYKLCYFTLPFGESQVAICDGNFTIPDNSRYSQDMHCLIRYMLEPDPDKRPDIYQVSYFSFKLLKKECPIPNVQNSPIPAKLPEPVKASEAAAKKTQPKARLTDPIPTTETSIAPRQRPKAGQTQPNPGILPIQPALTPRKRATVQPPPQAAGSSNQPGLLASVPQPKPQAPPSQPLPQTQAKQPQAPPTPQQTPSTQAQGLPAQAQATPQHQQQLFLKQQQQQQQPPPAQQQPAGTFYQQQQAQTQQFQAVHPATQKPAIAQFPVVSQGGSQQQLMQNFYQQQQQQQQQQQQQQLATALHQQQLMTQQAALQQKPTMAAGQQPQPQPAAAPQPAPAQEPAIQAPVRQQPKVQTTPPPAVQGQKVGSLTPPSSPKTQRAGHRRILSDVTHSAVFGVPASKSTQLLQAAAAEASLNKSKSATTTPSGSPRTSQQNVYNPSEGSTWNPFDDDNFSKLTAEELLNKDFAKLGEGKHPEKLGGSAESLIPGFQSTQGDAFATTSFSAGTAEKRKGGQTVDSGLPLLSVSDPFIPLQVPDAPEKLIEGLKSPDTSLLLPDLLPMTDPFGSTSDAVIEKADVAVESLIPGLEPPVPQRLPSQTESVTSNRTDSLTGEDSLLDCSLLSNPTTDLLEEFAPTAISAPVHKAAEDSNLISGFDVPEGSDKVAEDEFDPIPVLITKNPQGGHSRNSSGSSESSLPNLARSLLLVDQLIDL
Experimental: (§3) The kinase inhibitory potentials of compounds as described herein (e.g., SRI-42127 and SRI-41664) were evaluated by ThermoFisher Scientific's SelectScreen™ Kinase Profiling Service. The following kinase inhibitory assays were utilized: ZLYTE (Madison, WI) for NTRK1, PIM1, and cMET kinases; LanthaScreen Binding (Madison, WI) for AAK1 kinase; and Adapta (Madison, WI) for IRAK1 kinase.

IRAK1 = IRAK1 (Homo sapiens, UniProt P51617); experiment: SelectScreen kinase profiling, Adapta; assay type: biochemical
IRAK1, sequence (P51617 whole entry): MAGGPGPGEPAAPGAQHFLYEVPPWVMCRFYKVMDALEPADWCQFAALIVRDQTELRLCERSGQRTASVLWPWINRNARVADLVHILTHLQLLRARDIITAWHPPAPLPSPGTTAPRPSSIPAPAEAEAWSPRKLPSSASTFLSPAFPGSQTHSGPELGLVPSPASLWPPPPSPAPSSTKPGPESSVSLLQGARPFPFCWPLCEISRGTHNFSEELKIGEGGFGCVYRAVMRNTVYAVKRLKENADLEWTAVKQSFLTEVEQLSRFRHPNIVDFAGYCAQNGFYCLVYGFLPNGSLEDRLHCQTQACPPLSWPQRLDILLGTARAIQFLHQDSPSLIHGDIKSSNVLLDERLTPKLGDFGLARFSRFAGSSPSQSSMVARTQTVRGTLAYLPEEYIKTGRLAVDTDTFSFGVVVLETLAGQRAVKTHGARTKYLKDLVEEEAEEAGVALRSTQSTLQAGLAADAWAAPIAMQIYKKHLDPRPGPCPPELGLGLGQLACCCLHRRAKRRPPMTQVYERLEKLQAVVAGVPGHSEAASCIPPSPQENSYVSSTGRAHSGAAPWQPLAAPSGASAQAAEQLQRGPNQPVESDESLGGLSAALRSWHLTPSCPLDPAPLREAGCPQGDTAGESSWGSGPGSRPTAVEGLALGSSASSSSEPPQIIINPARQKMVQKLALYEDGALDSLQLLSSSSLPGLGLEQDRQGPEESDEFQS
Experimental: as §3

PIM1 = PIM1 (Homo sapiens, UniProt P11309); experiment: SelectScreen kinase profiling, ZLYTE; assay type: biochemical
PIM1, sequence (P11309 whole entry): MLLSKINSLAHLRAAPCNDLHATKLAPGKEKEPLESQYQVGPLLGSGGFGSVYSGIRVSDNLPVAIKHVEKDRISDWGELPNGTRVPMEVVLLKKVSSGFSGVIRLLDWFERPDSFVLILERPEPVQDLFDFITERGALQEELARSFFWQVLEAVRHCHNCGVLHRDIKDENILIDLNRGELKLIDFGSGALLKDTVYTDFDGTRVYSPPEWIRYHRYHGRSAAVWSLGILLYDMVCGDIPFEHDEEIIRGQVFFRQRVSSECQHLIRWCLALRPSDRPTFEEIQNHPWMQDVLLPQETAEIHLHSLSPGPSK
Experimental: as §3

TRKA (NTRK1) = TRKA (NTRK1) (Homo sapiens, UniProt P04629); experiment: SelectScreen kinase profiling, ZLYTE; assay type: biochemical
TRKA (NTRK1), sequence (P04629 33-796): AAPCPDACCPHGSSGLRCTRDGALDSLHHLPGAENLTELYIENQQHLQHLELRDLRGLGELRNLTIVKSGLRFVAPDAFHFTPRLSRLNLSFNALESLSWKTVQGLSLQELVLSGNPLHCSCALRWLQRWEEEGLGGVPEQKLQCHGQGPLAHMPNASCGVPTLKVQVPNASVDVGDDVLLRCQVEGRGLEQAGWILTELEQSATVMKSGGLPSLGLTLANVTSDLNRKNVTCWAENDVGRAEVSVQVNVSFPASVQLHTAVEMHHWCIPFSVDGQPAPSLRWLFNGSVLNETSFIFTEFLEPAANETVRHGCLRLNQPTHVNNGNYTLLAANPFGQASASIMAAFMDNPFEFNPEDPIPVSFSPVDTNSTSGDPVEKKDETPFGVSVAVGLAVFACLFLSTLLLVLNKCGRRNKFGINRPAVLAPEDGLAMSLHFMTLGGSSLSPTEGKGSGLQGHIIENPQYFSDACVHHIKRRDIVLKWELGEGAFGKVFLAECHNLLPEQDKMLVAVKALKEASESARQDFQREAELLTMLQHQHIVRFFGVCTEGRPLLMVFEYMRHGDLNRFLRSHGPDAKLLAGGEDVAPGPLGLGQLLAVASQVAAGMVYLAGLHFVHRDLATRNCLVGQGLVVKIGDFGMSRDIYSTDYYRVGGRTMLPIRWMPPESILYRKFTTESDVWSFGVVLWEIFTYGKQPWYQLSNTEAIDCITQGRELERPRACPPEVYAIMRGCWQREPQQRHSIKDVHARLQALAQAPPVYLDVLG
Experimental: as §3

cMET = cMET (Homo sapiens, UniProt P08581); experiment: SelectScreen kinase profiling, ZLYTE; assay type: biochemical
cMET, sequence (P08581 25-1390): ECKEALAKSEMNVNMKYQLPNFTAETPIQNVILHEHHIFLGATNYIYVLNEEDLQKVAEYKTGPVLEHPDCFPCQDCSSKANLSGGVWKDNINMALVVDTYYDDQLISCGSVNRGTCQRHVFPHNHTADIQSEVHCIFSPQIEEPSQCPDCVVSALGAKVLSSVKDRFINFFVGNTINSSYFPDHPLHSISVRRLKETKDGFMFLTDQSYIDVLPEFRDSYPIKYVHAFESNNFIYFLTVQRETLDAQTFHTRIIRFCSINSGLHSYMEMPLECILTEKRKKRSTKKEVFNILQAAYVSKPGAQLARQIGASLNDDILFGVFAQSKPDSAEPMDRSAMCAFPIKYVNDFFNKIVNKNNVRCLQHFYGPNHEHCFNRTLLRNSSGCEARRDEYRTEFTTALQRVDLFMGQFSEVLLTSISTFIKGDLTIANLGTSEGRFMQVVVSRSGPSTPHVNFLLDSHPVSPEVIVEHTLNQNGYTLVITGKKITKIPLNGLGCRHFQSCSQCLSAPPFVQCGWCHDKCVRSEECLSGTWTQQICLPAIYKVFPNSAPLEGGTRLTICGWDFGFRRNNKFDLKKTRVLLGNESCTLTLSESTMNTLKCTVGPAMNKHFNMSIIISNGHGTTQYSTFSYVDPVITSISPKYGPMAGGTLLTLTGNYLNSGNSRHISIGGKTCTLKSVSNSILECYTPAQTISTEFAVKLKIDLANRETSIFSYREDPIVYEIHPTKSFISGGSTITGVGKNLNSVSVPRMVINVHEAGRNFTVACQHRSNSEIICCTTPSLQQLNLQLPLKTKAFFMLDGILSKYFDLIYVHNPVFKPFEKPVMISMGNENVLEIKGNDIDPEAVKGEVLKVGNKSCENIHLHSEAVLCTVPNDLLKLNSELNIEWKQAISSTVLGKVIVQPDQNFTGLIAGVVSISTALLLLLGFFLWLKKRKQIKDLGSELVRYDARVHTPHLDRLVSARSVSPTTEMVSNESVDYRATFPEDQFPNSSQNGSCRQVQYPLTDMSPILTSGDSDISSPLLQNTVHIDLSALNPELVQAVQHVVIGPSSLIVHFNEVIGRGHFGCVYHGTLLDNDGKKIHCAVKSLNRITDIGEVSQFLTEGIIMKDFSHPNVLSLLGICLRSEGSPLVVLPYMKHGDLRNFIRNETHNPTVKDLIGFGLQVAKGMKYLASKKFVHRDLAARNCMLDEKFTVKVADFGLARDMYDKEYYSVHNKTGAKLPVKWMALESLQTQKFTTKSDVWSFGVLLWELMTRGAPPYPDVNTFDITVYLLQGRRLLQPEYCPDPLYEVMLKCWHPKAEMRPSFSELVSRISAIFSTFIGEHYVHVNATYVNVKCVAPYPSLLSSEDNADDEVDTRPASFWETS
Experimental: as §3

LN229 glioma cell line = experiment: PrestoBlue cell viability assay; assay type: cell-based; details: Homo sapiens, LN-229; LN229, 48 hours of treatment
Experimental: (§4) PrestoBlue cell viability reagent (ThermoFisher Scientific; Waltham, MA) was used for cell viability assays. The inhibitory dose-response data were normalized to the control (treatment with vehicle); the inhibitory dose-response curves, which were fitted by using Boltzmann equation, and the corresponding IC50s were generated by using OriginPro software (OriginLab Corporation, CA).
(§5) The glioma suppressive potentials of the new class of HuR multimerization inhibitors were evaluated by utilizing SRI-41664 and SRI-42127 compounds in several cell-based assays. First, it was confirmed that the SRI-41664 and SRI-42127 compounds are cytotoxic for established and PDGx cell lines. FIG. 5A illustrates the inhibitory dose responses of SRI-41664 and SRI-42127 compounds in the established U251, LN229, and the PDGx XD456 glioma cell lines. […] An HuR-overexpression approach was employed to confirm SRI-42127 inhibitory potency against HuR dimerization.

[4] = system: PDGx XD456 glioma cell line; experiment: PrestoBlue cell viability assay; assay type: cell-based; details: Glioma cell; XD456, 48 hours of treatment
Experimental: as §4, §5

U251 glioma cell line = experiment: PrestoBlue cell viability assay; assay type: cell-based; details: Homo sapiens, U-251, 48 h, U251, 48 hours of treatment; read-out: IC50 cell viability
Experimental: as §4, §5

[5] = system: U251 and XD456 glioma cell lines; experiment: western blotting of glioma cell fractions (Bcl2, Mcl1, SOX2, cleaved PARP, cleaved caspase 3); assay type: cell-based; details: U251 and XD456, 10 uM for 48 hours
Experimental: Western blotting was performed. Nuclear and cytoplasmic protein fractionations were performed using NE-PER Nuclear and Cytoplasmic extraction reagents (ThermoFisher Scientific). Anti-lamin A/C and anti-Tubulin alpha antibodies were utilized to verify nuclear and cytoplasmic fractions, respectively. Antibodies against lamin A/C, cleaved PARP, cleaved caspase 3, SOX2, and Mcl1 were purchased from Cell Signaling Technology (Danvers, MA). Anti-Tubulin alpha antibody was purchased from Sigma-Aldrich. Antibodies against HuR, actin, and Bcl2 were purchased from Santa Cruz Biotechnology (Santa Cruz, CA). Polyclonal anti-HuR antibody for HuR/mRNA co-immunoprecipitation was purchased from MBL International (Woburn, MA).
In FIG. 8B, representative western blots confirm reduction of Bcl2 and Mcl1 proteins in cytoplasmic fractions of U251 and XD456 cell lines following treatment with compounds as described herein, 10 uM for 48 hours. SOX2 reduction in nuclear fractions indicates decrease of tumorigenicity of cell lines after treatment with compounds as described herein. Actin and Lamin A/C were utilized for data normalization in cytoplasmic and nuclear fractions, respectively.
In FIG. 8C, representative western blots illustrate appearances of cleaved PARP and cleaved caspase 3 in glioma cell lines after treatment with compounds as described herein, 10 uM for 48 hours. […]

[6] = U251 cells co-expressing HuR-Nluc and HuR-Cluc, 6 hours of treatment
[7] = split luciferase HuR dimerization assay, compounds administered for 6 hours

Structure (SMILES)	HuR N/C Imax % Inh (HuR; Concn 50 uM) [%]	IC50 (HuR; [6]) [nM]	IC50 (HuR; [7]) [nM]	inhibition at 50 µM [1] [%]	solubility [2] [µM]	logD (Log D at pH 7.4)	half-life [3] [min]	half-life (in vitro) [min]	IC50 (AAK1) [nM]	IC50 (IRAK1) [nM]	IC50 (PIM1) [nM]	IC50 (TRKA (NTRK1)) [nM]	IC50 (cMET) [nM]	HuR inhibition activity (in words) (HuR)	further results
FC1(F)CCC(Nc2ccc3ncc(-c4ccc5cn[nH]c5c4)n3n2)CC1 [Compound 23, N-(4,4-Difluorocyclohexyl)-3-(1H-indazol-6-yl)imidazo[1,2-b]pyridazin-6-amine]	92	2800	2800	39	2.1 (≈ 0.774 µg/mL)	> 4.23	3.9	27.3							
FC(F)(F)CNc1ccc2ncc(-c3ccc4[nH]ncc4c3)n2n1 [Compound 50, 3-(1H-Indazol-5-yl)-N-(2,2,2-trifluoroethyl)imidazo[1,2-b]pyridazin-6-amine]	93	190	190	26	2.6 (≈ 0.864 µg/mL)	> 4.15	2.6	12.1							
c1cc2cn[nH]c2cc1-c1cnc2ccc(NC3CCOCC3)nn12 [Compound 5]				38					30	300	829	99	5980		IC50 (LN229 glioma cell line): 3800 ± 500 nM; IC50 [4]: 4800 ± 1100 nM; IC50 (U251 glioma cell line): 3400 ± 500 nM; Bcl2 and Mcl1 protein levels in cytoplasmic fractions [5]: dramatic reduction; cleaved caspase 3 and cleaved PARP (apoptosis) [5]: appearances of cleaved caspase 3 and cleaved PARP
Cn1ncc2ccc(-c3cnc4ccc(NC5CCOCC5)nn34)cc21 [Compound 20]	93	1200	1200	35	79.6 (≈ 27.7 µg/mL)	2.9	8.1	11.6							
FC1(F)CCC(Nc2ccc3ncc(-c4ccc5[nH]ncc5c4)n3n2)CC1 [Compound 46, N-(4,4-Difluorocyclohexyl)-3-(1H-indazol-5-yl)imidazo[1,2-b]pyridazin-6-amine]	91	2100	2100	17	1 (≈ 0.368 µg/mL)	> 4.16	4.4	11.5							
CCCN(C)c1ccc2ncc(-c3ccc4cnn(C)c4c3)n2n1 [Compound 30, N-Methyl-3-(1-methyl-1H-indazol-6-yl)-N-propylimidazo[1,2-b]pyridazin-6-amine]	91	2200	2200	36	2.5 (≈ 0.801 µg/mL)	> 4.55	1.3	7.9							
CC1(C)CC(Nc2ccc3ncc(-c4ccc5[nH]ncc5c4)n3n2)CCO1 (centres unmarked) [Compound 45, N-(2,2-Dimethyltetrahydro-2H-pyran-4-yl)-3-(1H-indazol-5-yl)imidazo[1,2-b]pyridazin-6-amine]	92	1100	1100	25	3.4 (≈ 1.23 µg/mL)	> 4.06	8.7	7.2						potent activity	
CCN(c1ccc2ncc(-c3ccc4cn[nH]c4c3)n2n1)C1CCOCC1 [Compound 26]			> 50000						15700	> 30000	> 30000	> 30000	> 30000	inactive	
CCCN(C)c1ccc2ncc(-c3ccc4cn[nH]c4c3)n2n1 [Compound 24, 3-(1H-Indazol-6-yl)-N-methyl-N-propylimidazo[1,2-b]pyridazin-6-amine]		2200	2200		10.9 (≈ 3.34 µg/mL)	> 4.18	3.1	9.7							HuR N/C Imax % Inh (HuR; Concn 100 uM): 93%; inhibition at 100 µM ([1]; Concn 100 uM): 10%
CCCN(c1ccc2ncc(-c3ccc4cn[nH]c4c3)n2n1)C1CCOCC1 [Compound 27]			> 50000		65.3 (≈ 24.6 µg/mL)	0.4	9.8	> 300	13000	> 30000	> 30000	> 30000	> 30000	inactive	
